The subject of assay [1] is K562. Kind of assay: Antiproliferative activity tested as 50% inhibition of DNA synthesis in human K562 erythroleukemia cell line. It is filed as functional, cell-based.
Assay [2] has as its system SW-620. Briefly: Antiproliferative activity tested as 50% inhibition of DNA synthesis in human SW620 colon carcinoma cell line. The format is functional, cell-based.

The term IC50 denotes the midpoint of a concentration-inhibition curve. Low values mean inhibition by little substance, high ones a need for much substance.

`CCOC(=O)c1csc(-c2nc3c([nH]2)C(=O)C=CC3=O)n1`: the IC50 in assay [1] was determined as 16.3 µM; in assay [2] it was 1.42 µM.
As to `COC1=CC(=O)c2[nH]c(-c3nc(C(=O)O)cs3)nc2C1=O`, the values for the IC50 in assay [1] and in assay [2] were 15.1 µM and 12.1 µM, respectively.
As to `CCOC(=O)c1csc(-c2nc3c([nH]2)C(=O)C=C(OC)C3=O)n1`, the IC50 in assay [1] is 1.16 µM; in assay [2] it was 13.1 µM.
Turning to `NC(=O)c1csc(-c2nc3c([nH]2)C(=O)C=CC3=O)n1`, the IC50 in assay [1] amounted to 7.7 µM; in assay [2], 3.03 µM.
For `O=C(O)c1csc(-c2nc3c([nH]2)C(=O)C=CC3=O)n1`, the IC50 in assay [1] came out at 18 µM; in assay [2], 8.76 µM.
Regarding `COC1=CC(=O)c2[nH]c(-c3nc(C(N)=O)cs3)nc2C1=O`, the IC50 was determined as 1.32 µM in assay [1] and 15.9 µM in assay [2].
For `COc1cccc2c1C(=O)c1c(O)c3c(c(O)c1C2=O)C[C@@](O)(C(=O)CO)C[C@@H]3O[C@H]1C[C@H](N)[C@H](O)[C@H](C)O1` [DOXORUBICIN], the IC50 was determined as 0.62 µM in assay [1] and 0.75 µM in assay [2].

Source of the values: ChEMBL document CHEMBL1134150, “Synthesis and antiproliferative activity of some thiazolylbenzimidazole-4,7-diones” (Bioorg Med Chem Lett, 2001).
